In the NIST ThermoML archive (doi:10.1016/j.tca.2013.10.017):

Assay: xn = mol fraction of the nth substance listed
Conditions: for surface tension liquid-gas: Ring tensiometer; for mass density: 101 kPa, Liquid, Vibrating tube method

CCN(CC)CCO.Cl [2-(diethylamino)ethanol hydrochloride] + OCCO
x1 = 0.25
Conditions	mass density [kg/m3]	surface tension liquid-gas [mN/m]
298.15 K	1100	51.29
303.15 K	1097	50.74
308.15 K	1093	50.17
313.15 K	1090	49.63
318.15 K	1087	49.14
323.15 K	1084	48.67
328.15 K	1081	48.12

C[N+](C)(C)CCO.[Cl-] [choline chloride] + OCC(O)CO
x1 = 0.33
Conditions	surface tension liquid-gas [mN/m]
298.15 K	57.24
303.15 K	56.85
308.15 K	56.43
313.15 K	55.93
318.15 K	55.45
323.15 K	55.03
328.15 K	54.55

C[P+](c1ccccc1)(c1ccccc1)c1ccccc1.[Br-] [methyltriphenylphosphonium bromide] + OCC(O)CO
x1 = 0.25
Conditions	surface tension liquid-gas [mN/m]
298.15 K	59.35
303.15 K	58.81
308.15 K	58.2
313.15 K	57.68
318.15 K	57.06
323.15 K	56.45
328.15 K	55.95

CCN(CC)CCO.Cl [2-(diethylamino)ethanol hydrochloride] + OCC(O)CO
x1 = 0.2
Conditions	mass density [kg/m3]	surface tension liquid-gas [mN/m]
298.15 K	1205	58.94
303.15 K	1202	58.33
308.15 K	1199	57.63
313.15 K	1196	56.99
318.15 K	1193	56.39
323.15 K	1188	55.73
328.15 K	1187	55.16

C[P+](c1ccccc1)(c1ccccc1)c1ccccc1.[Br-] [methyltriphenylphosphonium bromide] + OCCO
x1 = 0.2
Conditions	mass density [kg/m3]	surface tension liquid-gas [mN/m]
298.15 K	1289	47.51
303.15 K	1286	47.06
308.15 K	1282	46.57
313.15 K	1278	46.12
318.15 K	1275	45.59
323.15 K	1271	45.12
328.15 K	1267	44.64

O=C(CO)[C@@H](O)[C@H](O)[C@H](O)CO [D-fructose] + C[N+](C)(C)CCO.[Cl-]
x2 = 0.67
Conditions	surface tension liquid-gas [mN/m]
298.15 K	74.01
308.15 K	71.98
318.15 K	70.02
328.15 K	68.03
338.15 K	65.98
348.15 K	64.02
358.15 K	62.05

C[N+](C)(C)CCO.[Cl-] [choline chloride] + OCCO
x1 = 0.33
Conditions	mass density [kg/m3]	surface tension liquid-gas [mN/m]
298.15 K	1118	48.91
303.15 K	1116	48.43
308.15 K	1112	47.97
313.15 K	1110	47.5
318.15 K	1106	47.03
323.15 K	1104	46.67
328.15 K	1101	46.11

C[N+](C)(C)CCO.[Cl-] [choline chloride] + O=C[C@H](O)[C@@H](O)[C@H](O)[C@H](O)CO
x1 = 0.67
Conditions	surface tension liquid-gas [mN/m]
298.15 K	71.71
308.15 K	71.11
318.15 K	70.42
328.15 K	69.95
338.15 K	69.44
348.15 K	68.91
358.15 K	68.61
